Test results published in patent publication US10441630B2, “Topical formulations and uses thereof” (OCULAR TECHNOLOGIES SARL, priority 2012, dated 2019).

How the values were obtained:
Assay type in all cases: physicochemical
[1] = Physical appearance, melt method, HCO-40 and compound 1001, at 25° C. and 4° C.; details: 1001 4 wt %; for Allow to reach room temperature (25° C.): brought back from 4° C.; for Mixture physical appearance at room temperature (4° C.): placed at 4° C.; for Resuspend in water: water at 40° C.
Procedure: The preparation of MNF encapsulating compound 1001 (neat oil) can be divided into two steps. As an example for the development of 3.0 wt % HCO-40 or HCO-60 MNF encapsulating 0.4% compound 1001 is described below. […] To this melt polymer compound 1001 (˜20 mg), thermostated at 40° C., was added and mixed for homogenous distribution. […] (in refrigerator).
(§1) This aqueous solution was allowed to reach room temperature, under natural conditions. The pH of the solution was adjusted to 5.5 and the volume was made up with 2× phosphate buffer saline (pH 5.5) containing octoxynol-40 (0.01 wt %) and PVP-K-90 (1.2 wt %). The formulation was filtered through 0.2 μm nylon filter to remove any foreign material and obtain a clear homogenous aqueous RX-1001 formulation.
(§2) The results obtained for physical appearance of the mixture, different phases, at different temperatures and appearance of final formulation are summarized in Tables 3a-3c.

[2] = Appearance of compound 1001 MNF, solvent evaporation method; details: HCO-60 4 wt %, Octoxynol-40 0.01 wt %
Procedure: (§3) Mixed nanomicellar formulation encapsulating compound 1001 was prepared by solvent evaporation method in two steps: 1) Preparation of basic formulation and 2) rehydration. In step one, compound 1001, HCO-60 and octoxynol-40 were dissolved separately in 0.3 mL of ethyl acetate. These three solutions were mixed together in 15-mL centrifuge tube. The resultant mixture was vortexed to obtain a homogenous solution. Ethyl acetate solvent was removed with speed vacuum to obtain a solid thin film. The residue was kept overnight under high vacuum at room temperature to remove residual organic solvent. In step two, the resultant thin film was hydrated with 1 mL of double distilled deionized water by vortexing the solution. The rehydrated formulation was suspended in 2× phosphate buffer solution, (pH 6.5). It was filtered through 0.2 μm nylon filter membrane to remove the unentrapped drug aggregates and other foreign particulates. The entrapment of compound 1001 was determined by RP-HPLC following disruption of the micelles and solubilization of 1001 in the diluent (2-propanol) as described below
(§4) Weight percent of drug loaded into MNF was determined following the method for entrapment efficiency. Size and polydispersity index of the formulations was determined with Malvern zetasizer as described above. The formulations appear clear and have small size and narrow size distribution.

[3] = Physical appearance, melt method, HCO-60 and compound 1001; details: 1001 4 wt %; for Resuspend in water: water at 40° C.; for Physical appearance at room temperature (25° C.): melt mixture
Procedure: The preparation of MNF encapsulating compound 1001 (neat oil) can be divided into two steps. […] […] To this melt polymer compound 1001 (˜20 mg), thermostated at 40° C., was added and mixed for homogenous distribution. […] (in refrigerator).
as §1, §2

[4] = Mixed nanomicellar size and polydispersity index (Zetasizer) of compound 1001 MNF; details: HCO-60 4 wt %, Octoxynol-40 0.01 wt %
Procedure: The formulation size and polydispersity index were determined with Zetasizer, Malvern Instruments, NJ. In brief, approximately 1 ml of each formulation was transferred to a cuvette and placed in the instrument. A laser beam of light was used to determine the mixed nanomicellar size.
as §3, §4

[5] = 1001 initially added 0.035 wt %
[6] = 1001 initially added 0.070 wt %
[7] = 1001 initially added 0.095 wt %
[8] = 1001 initially added 0.120 wt %
[9] = 1001 initially added 0.250 wt %
[10] = 1001 initially added 0.300 wt %
[11] = 1001 initially added 0.400 wt %

C#CC[C@@H](O)/C=C/C=C/C#C[C@@H](O)CCCC(=O)OC(C)C [compound 1001]
Final formulation ([1]; HCO-40 0.5 wt %): Emulsion | Mixture physical appearance at room temperature (25° C.) ([1]; HCO-40 0.5 wt %): Viscous yellow | Allow to reach room temperature (25° C.) ([1]; HCO-40 0.5 wt %): Viscous liquid | Mixture physical appearance at room temperature (4° C.) ([1]; HCO-40 0.5 wt %): Viscous liquid | Resuspend in water ([1]; HCO-40 0.5 wt %): Emulsion | Final formulation ([1]; HCO-40 0.75 wt %): Emulsion | Mixture physical appearance at room temperature (25° C.) ([1]; HCO-40 0.75 wt %): Viscous yellow | Allow to reach room temperature (25° C.) ([1]; HCO-40 0.75 wt %): Viscous liquid | Mixture physical appearance at room temperature (4° C.) ([1]; HCO-40 0.75 wt %): Viscous liquid | Resuspend in water ([1]; HCO-40 0.75 wt %): Emulsion | Final formulation ([1]; HCO-40 1.0 wt %): Emulsion | Mixture physical appearance at room temperature (25° C.) ([1]; HCO-40 1.0 wt %): Viscous yellow | Allow to reach room temperature (25° C.) ([1]; HCO-40 1.0 wt %): Viscous liquid | Mixture physical appearance at room temperature (4° C.) ([1]; HCO-40 1.0 wt %): Viscous liquid | Resuspend in water ([1]; HCO-40 1.0 wt %): Emulsion | Final formulation ([1]; HCO-40 1.25 wt %): Emulsion | Mixture physical appearance at room temperature (25° C.) ([1]; HCO-40 1.25 wt %): Viscous yellow | Allow to reach room temperature (25° C.) ([1]; HCO-40 1.25 wt %): Viscous liquid | Mixture physical appearance at room temperature (4° C.) ([1]; HCO-40 1.25 wt %): Viscous liquid | Resuspend in water ([1]; HCO-40 1.25 wt %): Emulsion | Final formulation ([1]; HCO-40 1.5 wt %): Emulsion | Mixture physical appearance at room temperature (25° C.) ([1]; HCO-40 1.5 wt %): Viscous yellow | Allow to reach room temperature (25° C.) ([1]; HCO-40 1.5 wt %): Viscous liquid | Mixture physical appearance at room temperature (4° C.) ([1]; HCO-40 1.5 wt %): Yellow waxy | Resuspend in water ([1]; HCO-40 1.5 wt %): Emulsion | Final formulation ([1]; HCO-40 1.75 wt %): Emulsion | Mixture physical appearance at room temperature (25° C.) ([1]; HCO-40 1.75 wt %): Viscous yellow | Allow to reach room temperature (25° C.) ([1]; HCO-40 1.75 wt %): Viscous liquid | Mixture physical appearance at room temperature (4° C.) ([1]; HCO-40 1.75 wt %): Yellow waxy | Resuspend in water ([1]; HCO-40 1.75 wt %): Emulsion | Final formulation ([1]; HCO-40 2.0 wt %): Emulsion | Mixture physical appearance at room temperature (25° C.) ([1]; HCO-40 2.0 wt %): Viscous yellow | Allow to reach room temperature (25° C.) ([1]; HCO-40 2.0 wt %): Viscous liquid | Mixture physical appearance at room temperature (4° C.) ([1]; HCO-40 2.0 wt %): Yellow waxy | Resuspend in water ([1]; HCO-40 2.0 wt %): Emulsion | Final formulation ([1]; HCO-40 2.25 wt %): Emulsion | Mixture physical appearance at room temperature (25° C.) ([1]; HCO-40 2.25 wt %): Viscous yellow | Allow to reach room temperature (25° C.) ([1]; HCO-40 2.25 wt %): Viscous liquid | Mixture physical appearance at room temperature (4° C.) ([1]; HCO-40 2.25 wt %): Yellow waxy | Resuspend in water ([1]; HCO-40 2.25 wt %): Emulsion | Final formulation ([1]; HCO-40 2.5 wt %): Yellow color | Mixture physical appearance at room temperature (25° C.) ([1]; HCO-40 2.5 wt %): Viscous yellow | Allow to reach room temperature (25° C.) ([1]; HCO-40 2.5 wt %): Viscous liquid | Mixture physical appearance at room temperature (4° C.) ([1]; HCO-40 2.5 wt %): Yellow waxy | Resuspend in water ([1]; HCO-40 2.5 wt %): Yellow | Final formulation ([1]; HCO-40 2.75 wt %): Very pale yellow | Mixture physical appearance at room temperature (25° C.) ([1]; HCO-40 2.75 wt %): Viscous yellow | Allow to reach room temperature (25° C.) ([1]; HCO-40 2.75 wt %): Viscous liquid | Mixture physical appearance at room temperature (4° C.) ([1]; HCO-40 2.75 wt %): Pale yellow waxy | Resuspend in water ([1]; HCO-40 2.75 wt %): Pale yellow | Final formulation ([1]; HCO-40 3.0 wt %): Clear solution | Mixture physical appearance at room temperature (25° C.) ([1]; HCO-40 3.0 wt %): Viscous yellow | Allow to reach room temperature (25° C.) ([1]; HCO-40 3.0 wt %): Viscous liquid | Mixture physical appearance at room temperature (4° C.) ([1]; HCO-40 3.0 wt %): Pale yellow solid | Resuspend in water ([1]; HCO-40 3.0 wt %): Clear | Final formulation ([1]; HCO-40 4.0 wt %): Clear solution | Mixture physical appearance at room temperature (25° C.) ([1]; HCO-40 4.0 wt %): Viscous yellow | Allow to reach room temperature (25° C.) ([1]; HCO-40 4.0 wt %): Pale yellow | Mixture physical appearance at room temperature (4° C.) ([1]; HCO-40 4.0 wt %): Pale yellow waxy | Resuspend in water ([1]; HCO-40 4.0 wt %): Clear | Result [2, 5]: Clear/transparent | Result [2, 6]: Clear/transparent | Result [2, 7]: Clear/transparent | Result [2, 8]: Pale yellow color | Result [2, 9]: Yellow color | Result [2, 10]: Yellow color | Result [2, 11]: Yellow color | Final formulation (make up with 2X buffer containing 0.01% Oc-40) ([3]; HCO-60 1.0 wt %): Emulsion | Resuspend in water ([3]; HCO-60 1.0 wt %): Emulsion | Final formulation (make up with 2X buffer containing 0.01% Oc-40) ([3]; HCO-60 2.0 wt %): Pale yellow clear | Resuspend in water ([3]; HCO-60 2.0 wt %): Forms pale | Final formulation (make up with 2X buffer containing 0.01% Oc-40) ([3]; HCO-60 2.25 wt %): Pale yellow clear | Resuspend in water ([3]; HCO-60 2.25 wt %): Forms pale | Final formulation (make up with 2X buffer containing 0.01% Oc-40) ([3]; HCO-60 2.5 wt %): Pale yellow clear | Resuspend in water ([3]; HCO-60 2.5 wt %): Forms very | Final formulation (make up with 2X buffer containing 0.01% Oc-40) ([3]; HCO-60 2.75 wt %): Clear solution | Resuspend in water ([3]; HCO-60 2.75 wt %): Forms very | Final formulation (make up with 2X buffer containing 0.01% Oc-40) ([3]; HCO-60 3.0 wt %): Clear solution | Resuspend in water ([3]; HCO-60 3.0 wt %): Clear solution | Final formulation (make up with 2X buffer containing 0.01% Oc-40) ([3]; HCO-60 3.5 wt %): Clear solution | Resuspend in water ([3]; HCO-60 3.5 wt %): Clear solution | Final formulation (make up with 2X buffer containing 0.01% Oc-40) ([3]; HCO-60 4.0 wt %): Clear solution | Resuspend in water ([3]; HCO-60 4.0 wt %): Clear solution | Physical appearance at room temperature (25° C.) ([3]; HCO-60 1.0 wt %): Pale yellow half | Physical appearance at room temperature (25° C.) ([3]; HCO-60 2.0 wt %): Pale yellow | Physical appearance at room temperature (25° C.) ([3]; HCO-60 2.25 wt %): Pale yellow waxy | Physical appearance at room temperature (25° C.) ([3]; HCO-60 2.5 wt %): Pale yellow waxy | Physical appearance at room temperature (25° C.) ([3]; HCO-60 2.75 wt %): Pale yellow waxy | Physical appearance at room temperature (25° C.) ([3]; HCO-60 3.0 wt %): Pale yellow waxy | Physical appearance at room temperature (25° C.) ([3]; HCO-60 3.5 wt %): Pale yellow waxy | Physical appearance at room temperature (25° C.) ([3]; HCO-60 4.0 wt %): Pale yellow waxy | Mixed nanomicellar size (nm) [4, 5]: 24.90 nm | Polydispersity Index [4, 5]: 0.442 | Mixed nanomicellar size (nm) [4, 6]: 25.01 nm | Polydispersity Index [4, 6]: 0.414 | Mixed nanomicellar size (nm) [4, 7]: 24.79 nm | Polydispersity Index [4, 7]: 0.415 | Mixed nanomicellar size (nm) [4, 8]: 18.28 nm | Polydispersity Index [4, 8]: 0.320 | Mixed nanomicellar size (nm) [4, 9]: 18.37 nm | Polydispersity Index [4, 9]: 0.331 | Mixed nanomicellar size (nm) [4, 10]: 18.29 nm | Polydispersity Index [4, 10]: 0.345 | Mixed nanomicellar size (nm) [4, 11]: 18.2 nm | Polydispersity Index [4, 11]: 0.333
